The text below walks through data of paper PMC7397466, “Expression, purification and crystal structure determination of a ferredoxin reductase from the actinobacterium Thermobifida fusca” (Acta Crystallographica. Section F, Structural Biology …, 2020).

The target of the experiment is T1, FdR9 (Thermobifida fusca, UniProt Q47QF8).
T1 construct: gene Tfu_1273
The experiment can be described thus: X-ray crystal structure, […] Å. In kind it is binding. To be noted: copurified cofactor; crystals at pH 6.5, 298 K.

T1 sequence (Q47QF8 entry or part of it): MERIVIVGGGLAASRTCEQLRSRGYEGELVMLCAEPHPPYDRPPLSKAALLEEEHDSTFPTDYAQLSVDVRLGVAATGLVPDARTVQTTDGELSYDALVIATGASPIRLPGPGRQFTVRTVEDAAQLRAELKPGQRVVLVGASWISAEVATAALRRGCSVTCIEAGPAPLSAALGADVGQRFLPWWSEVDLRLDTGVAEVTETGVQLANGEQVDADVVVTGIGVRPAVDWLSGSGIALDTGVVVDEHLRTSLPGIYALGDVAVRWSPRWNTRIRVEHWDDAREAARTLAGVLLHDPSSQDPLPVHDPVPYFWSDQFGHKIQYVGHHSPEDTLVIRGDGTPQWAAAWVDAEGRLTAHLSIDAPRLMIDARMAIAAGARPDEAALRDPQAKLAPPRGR

As to `Cc1cc2nc3c(=O)[nH]c(=O)nc-3n(C[C@H](O)[C@H](O)[C@H](O)COP(=O)(O)OP(=O)(O)OC[C@H]3O[C@@H](n4cnc5c(N)ncnc54)[C@H](O)[C@@H]3O)c2cc1C` [FAD], the “X-ray crystal structure, 1.9 Å” value is listed as “The resulting electron-density map allowed the identification of the FAD molecule bound to the reductase”.
